Values joined by “and” are separate entries in the source; they are usually repeats but may differ in a detail not shown here. Identical values can stand only once. Counter-ions that a name gives are not always drawn.
Compound | melting point
CC(C)c1ccc(-n2cnc(-c3cccc(C(=O)O)c3)c2)cc1 | 225 to 226 °C
COc1cccc(-n2cnc(-c3ccc(C(=O)O)cc3)n2)c1 | 203 to 205 °C
O=C(O)c1cccc(-c2ccn(-c3ccc(C(F)(F)F)cc3)c2)c1 (as salt: sodium) [Compound 154, 3-[1-(4-Trifluoromethyl-phenyl)-]-1H-pyrrol-3-yl]-benzoic acid sodium salt] | 224 to 226 °C
CC(C)c1ccc(-c2cn(-c3cccc(C(=O)O)c3)c(N)n2)cc1 [Compound 1, 3-[2-amino-4-(4-isopropylphenyl)-1H-imidazol-1-yl]benzoic acid] | 279 to 282 °C (dec.)
CC(C)c1ccc(-c2ccn(-c3cccc(C(=O)O)c3)n2)cc1 [Compound 5, 3-[3-(4-Isopropyl-phenyl)-pyrazol-1-yl]-benzoic acid] | 215 to 216 °C
CC(C)c1ccc(-n2ccc(-c3cccc(C(=O)O)c3)c2)cc1 [Compound 6, 3-[1-(4-Isopropyl-phenyl)-1H-pyrrol-3-yl]-benzoic acid] | 210 to 215 °C
O=C(O)c1cccc(-n2cnc(-c3ccc(OCc4ccccc4)cc3)n2)c1 [Compound 10, 3-[3-(4-Benzyloxy-phenyl)-[1,2,4]triazol-1-yl]-benzoic acid] | 259 to 261 °C
COc1ccc(-c2ncn(-c3cccc(C(=O)O)c3)n2)cc1 [Compound 11, 3-[3-(4-Methoxy-phenyl)-[1,2,4]triazol-1-yl]-benzoic acid] | 268 to 270 °C
O=C(O)c1cccc(-c2ncn(-c3ccc(-c4ccccc4)cc3)n2)c1 [Compound 24, 3-(1-Biphenyl-4-yl-1H-[1,2,4]triazol-3-yl)-benzoic acid] | 263 to 265 °C
O=C(O)c1cccc(-c2ncn(-c3ccc(-c4cc5ccccc5o4)cc3)n2)c1 [Compound 26, 3-[1-(4-Benzofuran-2-yl-phenyl)-1H-[1,2,4]triazol-3-yl]-benzoic acid] | 293 to 295 °C
COc1ccc(-c2ccc(-n3cnc(-c4cccc(C(=O)O)c4)n3)cc2)cc1 [Compound 27, 3-[1-(4′-Methoxy-biphenyl-4-yl)-1H-[1,2,4]triazol-3-yl]-benzoic acid] | 243 to 246 °C
CC(C)c1ccc(-c2ccc(-n3cnc(-c4cccc(C(=O)O)c4)n3)cc2)cc1 [Compound 28, 3-[1-(4′-Isopropyl-biphenyl-4-yl)-1H-[1,2,4]triazol-3-yl]-benzoic acid] | 225 to 228 °C
O=C(O)c1cccc(-c2ncn(-c3ccc(-c4ccc(F)cc4)cc3)n2)c1 [Compound 32, 3-[1-(4′-Fluoro-biphenyl-4-yl)-1H-[1,2,4]triazol-3-yl]-benzoic acid] | 272 to 275 °C
Cc1nc(-c2cccc(C(=O)O)c2)nn1-c1ccc(Br)cc1 [Compound 33, 3-[1-(4-Bromo-phenyl)-5-methyl-1H-[1,2,4]triazol-3-yl]-benzoic acid] | 295 to 298 °C
Cc1nc(-c2cccc(C(=O)O)c2)nn1-c1cccc(F)c1 [Compound 34, 3-[1-(3-Fluoro-phenyl)-5-methyl-1H-[1,2,4]triazol-3-yl]-benzoic acid] | 236 to 238 °C

Continued, values first:

melting point | Compound
268 to 271 °C | O=C(O)c1cccc(-n2cnc(-c3ccccc3)n2)c1 [Compound 8, 3-(3-Phenyl-[1,2,4]triazol-1-yl)-benzoic acid]
307 to 311 °C | O=C(O)c1cccc(-n2cnc(-c3ccc(O)cc3)n2)c1 [Compound 9, 3-[3-(4-Hydroxy-phenyl)-[1,2,4]triazol-1-yl]-benzoic acid]
230 to 232 °C | COc1ccc(-n2cnc(-c3cccc(C(=O)O)c3)n2)cc1 [Compound 12, 3-[1-(4-Methoxy-phenyl)-1H-[1,2,4]triazol-3-yl]-benzoic acid]
> 310 °C | O=C(O)c1cccc(-c2ncn(-c3ccc(F)cc3)n2)c1 [Compound 13, 3-[1-(4-Fluoro-phenyl)-1H-[1,2,4]triazol-3-yl]-benzoic acid]
263 to 265 °C | Cc1ccc(-n2cnc(-c3cccc(C(=O)O)c3)n2)cc1 [Compound 14, 3-(1-p-Tolyl-1H-[1,2,4]triazol-3-yl)-benzoic acid]
173 to 175 °C | CC(C)c1ccc(-n2cnc(-c3cccc(C(=O)O)c3)n2)cc1 [Compound 15, 3-[1-(4-Isopropyl-phenyl)-1H-[1,2,4]triazol-3-yl]-benzoic acid]
290 to 291 °C and 290 to 292 °C | O=C(O)c1cccc(-c2ncn(-c3ccc(F)cc3F)n2)c1 [Compound 16, 3-[1-(2,4-Difluoro-phenyl)-1H-[1,2,4]triazol-3-yl]-benzoic acid]
239 to 241 °C | O=C(O)c1cccc(-c2ncn(-c3ccccc3F)n2)c1 [Compound 17, 3-[1-(2-Fluoro-phenyl)-1H-[1,2,4]triazol-3-yl]-benzoic acid]
141 to 143 °C | O=C(O)c1cccc(-c2ncn(-c3ccc(C(F)(F)F)cc3)n2)c1 [Compound 18, 3-[1-(4-Trifluoromethyl-phenyl)-1H-[1,2,4]triazol-3-yl]-benzoic acid]
219 to 221 °C | O=C(O)c1cccc(-c2ncn(-c3ccc(OC(F)(F)F)cc3)n2)c1 [Compound 19, 3-[1-(4-Trifluoromethoxy-phenyl)-1H-[1,2,4]triazol-3-yl]-benzoic acid]
271 to 273 °C | O=C(O)c1cccc(-c2ncn(-c3cc(C(F)(F)F)cc(C(F)(F)F)c3)n2)c1 [Compound 20, 3-[1-(3,5-Bis-trifluoromethyl-phenyl)-1H-[1,2,4]triazol-3-yl]-benzoic acid]
176 to 178 °C | CCc1ccccc1-n1cnc(-c2cccc(C(=O)O)c2)n1 [Compound 21, 3-[1-(2-Ethyl-phenyl)-1H-[1,2,4]triazol-3-yl]-benzoic acid]
> 310 °C | O=C(O)c1cccc(-c2ncn(-c3ccc(Br)cc3)n2)c1 [Compound 22, 3-[1-(4-Bromo-phenyl)-1H-[1,2,4]triazol-3-yl]-benzoic acid]
284 to 286 °C | O=C(O)c1cccc(-c2ncn(-c3ccc([N+](=O)[O-])cc3)n2)c1 [Compound 23, 3-[1-(4-Nitro-phenyl)-1H-[1,2,4]triazol-3-yl]-benzoic acid]
270 to 272 °C | O=C(O)c1cccc(-c2ncn(-c3ccc(F)c(Cl)c3)n2)c1 [Compound 25, 3-[1-(3-Chloro-4-fluoro-phenyl)-1H-[1,2,4]triazol-3-yl]-benzoic acid]
266 to 268 °C | O=C(O)c1cccc(-c2ncn(-c3cccc(F)c3)n2)c1 [Compound 29, 3-[1-(3-Fluoro-phenyl)-1H-[1,2,4]triazol-3-yl]-benzoic acid]
245 to 247 °C | O=C(O)c1cccc(-c2ncn(-c3ccccc3Br)n2)c1 [Compound 30, 3-[1-(2-Bromo-phenyl)-1H-[1,2,4]triazol-3-yl]-benzoic acid]
> 300 °C | O=C(O)c1ccc(-n2cnc(-c3cccc(C(=O)O)c3)n2)cc1 [Compound 31, 4-[3-(3-Carboxy-phenyl)-[1,2,4]triazol-1-yl]-benzoic acid]
253 to 255 °C | O=C(O)c1cccc(-c2ncn(-c3cccc(Br)c3)n2)c1 [Compound 35, 3-[1-(3-Bromo-phenyl)-1H-[1,2,4]triazol-3-yl]-benzoic acid]

Source: US9051342B2 (priority 2004, dated 2015)
